# According to patent US8889173B2, “Alpha adrenergic receptor agonists for treatment of pain and/or inflammation” (Warsaw Orthopedic, Inc., priority 2008, dated 2014):
# Key:
# [1] = test system: rat Chronic Constriction Injury model (Bennett Model); experiment: von Frey monofilament test of mechanical allodynia (mechanical threshold) in rat chronic constriction injury model; assay type: in vivo, Wistar rat
# Source text: (§1) The inventors evaluated the efficacy of a various alpha-2-adrenergic receptor agonists and compared them against saline in the rat Chronic Constriction Injury model (i.e., Bennett Model) using Wistar rats. […] The doses given would mimic those achievable by a continuous release drug depot containing a biodegradable polymer (7 rats in each group).
# (§2) Each group received the treatment indicated above for total of 15 days and subjected to the following two tests: (1) the Hargreaves test on days 7 and 14; and (2) the von Frey test on days 8 and 15.
# (§3) Results from another rat chronic constriction injury model study similar to that discussed in Example 5, except some drug compositions having predominantly alpha 1 agonist activity and some drug compositions having predominantly alpha 2 agonist activity were given as indicated in the table below. The doses given would mimic those achievable by a continuous release drug depot containing a biodegradable polymer (7 rats in each group).
# (§4) Each group received the treatment indicated above for total of 14 days and the following two tests: (1) the Hargreaves test on days 7 and 14; and (2) the von Frey test on days 8 and 15.
# [2] = test system: rat Chronic Constriction Injury model (Bennett Model); experiment: Hargreaves test of thermal hyperalgesia (thermal paw withdrawal latency) in rat chronic constriction injury model; assay type: in vivo, Wistar rat
# Source text: as §1, §2, §3, §4
# [3] = 100 micrograms/kg subcutaneous every day for 15 days, days 7 and 14, FIG. 36
# [4] = 5 mg/kg subcutaneous every day for 15 days, day 15, vs saline
smiles,measurement,setting,value
Clc1ccc2nsnc2c1NC1=NCCN1 [tizanidine],pain behavioral response for mechanical allodynia,"[1]; 100 micrograms/kg subcutaneous every day for 15 days, day 15, vs saline, FIG. 35",statistically significant results of decreasing pain responses
same,pain behavioral response for thermal hyperalgesia,[2]; [3],statistically significant result of decreasing pain responses
CNC[C@H](O)c1cccc(O)c1 [phenylephrine],pain behavioral response for mechanical allodynia,"[1]; 10 mg/kg subcutaneous every day, day 8, vs saline, FIG. 38",decreased mechanical allodynia
same,pain behavioral response for thermal hyperalgesia,"[2]; 2 mg/kg subcutaneous every day for 15 days, day 7, FIG. 37",statistically significant result of decreasing pain responses
same,pain behavioral response for thermal hyperalgesia,"[2]; 10 mg/kg subcutaneous every day for 15 days, days 7 and 14, FIG. 37",statistically significant result of decreasing pain responses
"Clc1cccc(Cl)c1N=C1NCCN1 [clonidine, 2,6-dichloro-N-2-imidazolidinyldenebenzenamine]",pain behavioral response for mechanical allodynia,"[1]; 0.02 mg/kg subcutaneous every day for 15 days, day 15, vs saline, FIG. 35",statistically significant results of decreasing pain responses
same,pain behavioral response (measured as a percentage of baseline) for mechanical allodynia,"[1]; 0.02 mg/kg/day subcutaneously, compared to unloaded polymer depots, FIG. 4",reduced the behavioral response
same,pain behavioral response for thermal hyperalgesia,"[2]; 0.02 mg/kg subcutaneous every day for 15 days, days 7 and 14",statistically significant result of decreasing pain responses
Cc1cccc(C(C)c2cnc[nH]2)c1C (centres unmarked) [medetomidine],pain behavioral response for mechanical allodynia,"[1]; 200 micrograms/kg subcutaneous every day for 15 days, day 15, vs saline, FIG. 35",statistically significant results of decreasing pain responses
same,pain behavioral response for thermal hyperalgesia,[2]; [3],statistically significant result of decreasing pain responses
same,pain behavioral response for thermal hyperalgesia,"[2]; 200 micrograms/kg subcutaneous every day for 15 days, day 14, FIG. 36",statistically significant result of decreasing pain responses
Cc1cc(C(C)(C)C)c(O)c(C)c1CC1=NCCN1 [oxymetazoline],pain behavioral response for mechanical allodynia,"[1]; 0.1 mg/kg subcutaneous every day for 15 days, day 8 and 15, vs saline group, FIG. 38",decreasing pain responses
same,pain behavioral response for mechanical allodynia,"[1]; 0.3 mg/kg subcutaneous every day for 15 days, day 8 and 15, vs saline group, FIG. 38",decreasing pain responses
same,pain behavioral response for thermal hyperalgesia,"[2]; 0.1 mg/kg subcutaneous every day for 15 days, day 7, FIG. 37",statistically significant result of decreasing pain responses
same,pain behavioral response for thermal hyperalgesia,"[2]; 0.3 mg/kg subcutaneous every day for 15 days, days 7 and 14, FIG. 37",statistically significant result of decreasing pain responses
N=C(N)N/N=C/c1c(Cl)cccc1Cl [guanabenz],pain behavioral response for mechanical allodynia,"[1]; 1 mg/kg subcutaneous every day, day 8, vs saline, FIG. 38",decreased mechanical allodynia
same,pain behavioral response for mechanical allodynia,[1]; [4],decreased mechanical allodynia
same,pain behavioral response for thermal hyperalgesia,"[2]; 1 mg/kg subcutaneous every day for 15 days, day 7, FIG. 37",statistically significant result of decreasing pain responses
N=C(N)NC(=O)Cc1c(Cl)cccc1Cl [guanfacine],pain behavioral response for mechanical allodynia,[1]; [4],statistically significant results of decreasing pain responses
same,pain behavioral response for thermal hyperalgesia,"[2]; 5 mg/kg subcutaneous every day for 15 days, days 7 and 14, FIG. 36",statistically significant result of decreasing pain responses
